# Assay results reported in patent publication US4544658A, “1-Cyclopropyl-6-fluoro-1,4-dih ydro-4-oxo-7-(alkyl-1-piperazinyl)quinoline-3-carboxylic acids, processes for their preparation and antibacterial agents containing them” (Bayer Aktiengesellschaft, priority 1982, dated 1985).
# Experiments:
# Experiment in all cases: MIC, agar dilution test; Denley multipoint inoculation procedure
# Assay type in all cases: cell-based
# Staphylococcus Fk422 = settings: read-out: Minimum inhibitory concentration (MIC)
# Staphylococcus 133 = settings: read-out: Minimum inhibitory concentration (MIC)
# Klebsiella 6179 = settings: read-out: Minimum inhibitory concentration (MIC)
# Klebsiella 57 USA = settings: read-out: Minimum inhibitory concentration (MIC)
# Klebsiella 8085 = settings: read-out: Minimum inhibitory concentration (MIC)
# Providencia 12052 = settings: read-out: Minimum inhibitory concentration (MIC)
# E. coli Neumann = settings: Escherichia coli, read-out: Minimum inhibitory concentration (MIC)
# Serratia 16040 = settings: read-out: Minimum inhibitory concentration (MIC)
# Staphylococcus 1756 = settings: read-out: Minimum inhibitory concentration (MIC)
MIC (Staphylococcus Fk422) [µg/mL],MIC (Staphylococcus 133) [µg/mL],MIC (Klebsiella 6179) [µg/mL],MIC (Klebsiella 57 USA) [µg/mL],MIC (Klebsiella 8085) [µg/mL],MIC (Providencia 12052) [µg/mL],MIC (E. coli Neumann) [µg/mL],MIC (Serratia 16040) [µg/mL],MIC (Staphylococcus 1756) [µg/mL],Structure (SMILES)
0.25,0.25,0.125,0.03,≤ 0.015,16,≤ 0.015,4,0.25,"CC1CN(c2cc3c(cc2F)c(=O)c(C(=O)O)cn3C2CC2)CCN1 (stereo not drawn) [Example 1, 1-cyclopropyl-6-fluoro-1,4-dihydro-4-oxo-7-(3-methyl-1-piperazinyl)quinoline-3-carboxylicacid semihydrate]"
0.5,0.25,0.25,0.125,≤ 0.015,16,≤ 0.015,16,0.25,"C[C@@H]1CN(c2cc3c(cc2F)c(=O)c(C(=O)O)cn3C2CC2)C[C@H](C)N1 [Example 3, 1-cyclopropyl-6-fluoro-1,4-dihydro-4-oxo-7-(3,5-dimethyl-1-piperazinyl)quinoline-3-carboxylic acid]"
0.5,0.25,0.25,0.25,≤ 0.015,32,0.03,16,0.5,"CCN1CCN(c2cc3c(cc2F)c(=O)c(C(=O)O)cn3C2CC2)CC1C.I.O (stereo not drawn) [Example 4, 1-cyclopropyl-6-fluoro-1,4-dihydro-4-oxo-7-(4-ethyl-3-methyl-1-piperazinyl)quinoline-3-carboxylic acid hydriodide monohydrate]"
0.5,0.5,0.5,0.5,0.03,32,0.03,32,0.5,"CCN1[C@H](C)CN(c2cc3c(cc2F)c(=O)c(C(=O)O)cn3C2CC2)C[C@@H]1C [Example 5, 1-cyclopropyl-6-fluoro-1,4-dihydro-4-oxo-7-(4-ethyl-3,5-dimethyl-1-piperazinyl)quinoline-3-carboxylic acid hydriodide]"
